Patent US20140357713A1, “ANTIMICROBIAL COMPOUNDS AND METHODS OF USE” (NexMed Holdings, Inc., priority 2012, published 2014)
Where two headings read alike, the source gives them in different places.

Legend:
[1] = test system: Staphulococcus aureus (ATCC 29213); experiment: Minimum inhibitory concentration (MIC) assay, Example 33; format: cell-based, Staphylococcus aureus; settings: Staphylococcus aureus
In short: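 Antibacterial MICs come from CLSI-guided broth microdilution in CAMHB at 35° C, using a McFarland 0.5-standardized inoculum diluted 1:100 before 1:2 addition to drug wells.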

[2] = test system: Aspergillus niger; experiment: Extended time kill study, Example 34 (0 to 24 h); format: cell-based
Method: (§1) Time kill studies. Strain suspensions were prepared as described above for the MIC test, and strain suspensions and compound solutions were mixed in the same volume. Samples were removed at specified times including 0 min, 30 sec, 1 min and 5 mins, were diluted in the test medium and streaked on agar. Colonies were counted after 24 to 48 hrs of incubation.
(§2) The time kill studies of Example 33 were extended for five compounds (Nex-59, Nex-60, Nex-61, Nex-62, and Nex-88) using the same methods at longer time periods and at higher multiples of MIC. Nex-88 is a code number for DDAIP.HCl from a different supplier.

[3] = test system: Staphylococcus aureus; experiment: Extended time kill study, Example 34 (0 to 24 h); format: cell-based
Method: as §1, §2

[4] = test system: Candida albicans; experiment: Extended time kill study, Example 34 (0 to 24 h); format: cell-based
Method: as §1, §2

[5] = Solubility (Sol., Table 1); format: physicochemical

CCCCCCCCCCCCOC(=O)C(C)NCCO.Cl (centres unmarked) [Nex-61, Dodecyl 2-((2-hydroxyethyl)amino)propanoate hydrochloride]
MIC ([1]; ATCC29213, Table 19 summary, read-out: MIC): 50 µg/mL | MIC ([1]; ATCC29213, n = 1, read-out: MIC S. aureus): 50 µg/mL | MIC ([1]; ATCC29213, n = 2, read-out: MIC S. aureus): 50 µg/mL | Viable counts in Log10 CFU/mL ([2]; 1 × MIC, 1 h): 5.48 Log10 CFU/mL | Viable counts in Log10 CFU/mL ([2]; 1 × MIC, 2 h): 5.36 Log10 CFU/mL | Viable counts in Log10 CFU/mL ([2]; 1 × MIC, 4 h): 5.18 Log10 CFU/mL | Viable counts in Log10 CFU/mL ([2]; 1 × MIC, 6 h): 4.95 Log10 CFU/mL | Viable counts in Log10 CFU/mL ([2]; 1 × MIC, 24 h): 4.48 Log10 CFU/mL | Viable counts in Log10 CFU/mL ([2]; 1 × MIC, 0 h): 5.28 Log10 CFU/mL | Viable counts in Log10 CFU/mL ([2]; 2 × MIC, 1 h): 5.52 Log10 CFU/mL | Viable counts in Log10 CFU/mL ([2]; 2 × MIC, 2 h): 5.57 Log10 CFU/mL | Viable counts in Log10 CFU/mL ([2]; 2 × MIC, 4 h): 4.48 Log10 CFU/mL | Viable counts in Log10 CFU/mL ([2]; 2 × MIC, 6 h): 4.90 Log10 CFU/mL | Viable counts in Log10 CFU/mL ([2]; 2 × MIC, 24 h): 3 Log10 CFU/mL | Viable counts in Log10 CFU/mL ([2]; 2 × MIC, 0 h): 5.33 Log10 CFU/mL | Viable counts in Log10 CFU/mL ([2]; 4 × MIC, 1 h): 5.34 Log10 CFU/mL | Viable counts in Log10 CFU/mL ([2]; 4 × MIC, 2 h): 5.41 Log10 CFU/mL | Viable counts in Log10 CFU/mL ([2]; 4 × MIC, 4 h): 5.28 Log10 CFU/mL | Viable counts in Log10 CFU/mL ([2]; 4 × MIC, 6 h): 4.95 Log10 CFU/mL | Viable counts in Log10 CFU/mL ([2]; 4 × MIC, 24 h): <2 Log10 CFU/mL | Viable counts in Log10 CFU/mL ([2]; 4 × MIC, 0 h): 5.26 Log10 CFU/mL | Viable counts, Staphylococcus aureus time kill study ([3]; 1 × MIC, 1 h): 5 Log10 CFU/mL | Viable counts, Staphylococcus aureus time kill study ([3]; 1 × MIC, 2 h): <3 Log10 CFU/mL | Viable counts, Staphylococcus aureus time kill study ([3]; 1 × MIC, 4 h): <3 Log10 CFU/mL | Viable counts, Staphylococcus aureus time kill study ([3]; 1 × MIC, 6 h): <3 Log10 CFU/mL | Viable counts, Staphylococcus aureus time kill study ([3]; 1 × MIC, 24 h): <1 Log10 CFU/mL | Viable counts, Staphylococcus aureus time kill study ([3]; 1×MIC, time 0): 6.14 Log10 CFU/mL | Viable counts, Staphylococcus aureus time kill study ([3]; 2 × MIC, 1 h): <3 Log10 CFU/mL | Viable counts, Staphylococcus aureus time kill study ([3]; 2 × MIC, 2 h): <3 Log10 CFU/mL | Viable counts, Staphylococcus aureus time kill study ([3]; 2 × MIC, 4 h): <3 Log10 CFU/mL | Viable counts, Staphylococcus aureus time kill study ([3]; 2 × MIC, 6 h): <3 Log10 CFU/mL | Viable counts, Staphylococcus aureus time kill study ([3]; 2 × MIC, 24 h): <1 Log10 CFU/mL | Viable counts, Staphylococcus aureus time kill study ([3]; 2 × MIC, time 0): 6.20 Log10 CFU/mL | Viable counts, Staphylococcus aureus time kill study ([3]; 4 × MIC, 1 h): <3 Log10 CFU/mL | Viable counts, Staphylococcus aureus time kill study ([3]; 4 × MIC, 2 h): <3 Log10 CFU/mL | Viable counts, Staphylococcus aureus time kill study ([3]; 4 × MIC, 4 h): <3 Log10 CFU/mL | Viable counts, Staphylococcus aureus time kill study ([3]; 4 × MIC, 6 h): <3 Log10 CFU/mL | Viable counts, Staphylococcus aureus time kill study ([3]; 4 × MIC, 24 h): <1 Log10 CFU/mL | Viable counts, Staphylococcus aureus time kill study ([3]; 4 × MIC, time 0): 6.18 Log10 CFU/mL | Viable counts in Log10 CFU/mL ([4]; 1 × MIC, 1 h): 5.37 Log10 CFU/mL | Viable counts in Log10 CFU/mL ([4]; 1 × MIC, 2 h): 5.37 Log10 CFU/mL | Viable counts in Log10 CFU/mL ([4]; 1 × MIC, 4 h): 5.32 Log10 CFU/mL | Viable counts in Log10 CFU/mL ([4]; 1 × MIC, 6 h): 5.54 Log10 CFU/mL | Viable counts in Log10 CFU/mL ([4]; 1 × MIC, 24 h): >6 Log10 CFU/mL | Viable counts in Log10 CFU/mL ([4]; 1 × MIC, 0 h): 5.43 Log10 CFU/mL | Viable counts in Log10 CFU/mL ([4]; 2 × MIC, 1 h): <3 Log10 CFU/mL | Viable counts in Log10 CFU/mL ([4]; 2 × MIC, 2 h): <3 Log10 CFU/mL | Viable counts in Log10 CFU/mL ([4]; 2 × MIC, 4 h): <2.70 Log10 CFU/mL | Viable counts in Log10 CFU/mL ([4]; 2 × MIC, 6 h): <2.70 Log10 CFU/mL | Viable counts in Log10 CFU/mL ([4]; 2 × MIC, 24 h): >6 Log10 CFU/mL | Viable counts in Log10 CFU/mL ([4]; 2 × MIC, 0 h): 5.48 Log10 CFU/mL | Viable counts in Log10 CFU/mL ([4]; 4 × MIC, 1 h): <3 Log10 CFU/mL | Viable counts in Log10 CFU/mL ([4]; 4 × MIC, 2 h): <3 Log10 CFU/mL | Viable counts in Log10 CFU/mL ([4]; 4 × MIC, 4 h): <2.70 Log10 CFU/mL | Viable counts in Log10 CFU/mL ([4]; 4 × MIC, 6 h): <2.70 Log10 CFU/mL | Viable counts in Log10 CFU/mL ([4]; 4 × MIC, 24 h): <1 Log10 CFU/mL | Viable counts in Log10 CFU/mL ([4]; 4 × MIC, 0 h): 5.39 Log10 CFU/mL | melting point: 134 to 139 °C | Sol. [5]: 40%
